Measured values reported in patent US7217682B2, “Cyclopropanecarboxylic acid esters and pest controllers containing the same” (Sumitomo Chemical Company, Limited, priority 2001, dated 2007).

Each compound was assayed on Adult houseflies (assay: Knock-down test on adult houseflies, oil solution sprayed into a cubic chamber). Details: 0.7 ml of 0.025% oil solution sprayed in 70 cm cubic chamber; 5 male and 5 female adult houseflies; counted for 10 minutes; average of two repeats.
Format: in vivo
Description: A solution of 0.025 part of Present Compound 1 to 6 dissolved with 10 parts of dichloromethane was mixed with […] parts of deodorized kerosene to give a 0.025% oil solution.
Adult houseflies (5 males and 5 females) were left in a cubic chamber (70 cm at side). Seven-tenths (0.7) ml of the 0.025% oil solution of Present Compound 1 to 6 prepared above was sprayed with a spray gun at a pressure of 8.8×10^4 Pa from a small window on the side of the chamber. Then, the number of the knocked-down insects was counted at times for 10 minutes. The time for knocking down half of the tested insects (KT50) was calculated from the result.
Furthermore, the test was similarly done by using (4-methoxymethyl-2,3,5,6-tetrafluoro)phenylmethyl [1R[1α, 3β(Z)]]-2,2-dimethyl-3-(2-fluoro-3-methoxy-3-oxopropenyl)cyclopropanecarboxylate (hereinafter, referred to as Comparative Compound):
[drawing 12] described in GB patent publication 2,268,740 as a comparative compound. The tests were done twice repeat, and the KT50 values were calculated from the averages.

| SMILES | KT50 (time for knocking down half of the tested insects) [min] |
| --- | --- |
| COCc1c(F)c(F)c(COC(=O)C2C(/C=C(\F)C(=O)OC)C2(C)C)c(F)c1F (stereo not drawn) [Comparative Compound, (4-methoxymethyl-2,3,5,6-tetrafluoro)phenylmethyl [1R[1α, 3β(Z)]]-2,2-dimethyl-3-(2-fluoro-3-methoxy-3-oxopropenyl)cyclopropanecarboxylate, reference compound] | >10 |
| CCOC(=O)/C(C#N)=C/C1C(C(=O)OCc2c(F)c(F)c(COC)c(F)c2F)C1(C)C (stereo not shown) [Present Compound 1, 4-methoxymethyl-2,3,5,6-tetrafluorobenzyl 2,2-dimethyl-3-((E)-2-cyano-3-ethoxy-3-oxo-1-propenyl) cyclopropanecarboxylate] | 1.5 |
| COCc1c(F)c(F)c(COC(=O)C2C(/C=C(\C#N)C(=O)OC)C2(C)C)c(F)c1F (stereo not shown) [Present Compound 2, 4-methoxymethyl-2,3,5,6-tetrafluorobenzyl 2,2-dimethyl-3-((E)-2-cyano-3-methoxy-3-oxo-1-propenyl) cyclopropanecarboxylate] | 1.9 |
| CCCOC(=O)/C(C#N)=C/C1C(C(=O)OCc2c(F)c(F)c(COC)c(F)c2F)C1(C)C (stereo not shown) [Present Compound 3, 4-methoxymethyl-2,3,5,6-tetrafluorobenzyl 2,2-dimethyl-3-((E)-2-cyano-3-propoxy-3-oxo-1-propenyl) cyclopropanecarboxylate] | 4.1 |
| C=CCOC(=O)/C(C#N)=C/C1C(C(=O)OCc2c(F)c(F)c(COC)c(F)c2F)C1(C)C (stereo not shown) [Present Compound 4, 4-methoxymethyl-2,3,5,6-tetrafluorobenzyl 2,2-dimethyl-3-((E)-2-cyano-3-allyloxy-3-oxo-1-propenyl) cyclopropanecarboxylate] | 4.3 |
| COCc1c(F)c(F)c(COC(=O)C2C(/C=C(\C#N)C(=O)OC(C)C)C2(C)C)c(F)c1F (stereo not shown) [Present Compound 5, 4-methoxymethyl-2,3,5,6-tetrafluorobenzyl 2,2-dimethyl-3-((E)-2-cyano-3-isopropoxy-3-oxo-1-propenyl) cyclopropanecarboxylate] | 1.5 |
| COCc1c(F)c(F)c(COC(=O)C2C(/C=C(\C#N)C(=O)OC(C)(C)C)C2(C)C)c(F)c1F (stereo not shown) [Present Compound 6, 4-methoxymethyl-2,3,5,6-tetrafluorobenzyl 2,2-dimethyl-3-((E)-2-cyano-3-t-butyloxy-3-oxo-1-propenyl) cyclopropanecarboxylate] | 3.4 |
